The numbers were not newly measured in patent publication US20060069068A1, “Methods and compositions for the treatment of diseases characterized by pathological calcification” (Nanobac Pharmaceuticals, Inc., priority 2004, published 2006), which cites them from elsewhere.

In one series the test system is Nanobacteria. The following applies: background statement.
For series [1] the following is noted: both in vitro and in vivo; comparator etidronate.

Penicillin: the “killing of Nanobacteria” value in the series on Nanobacteria was “cannot be killed”. As to `NCCCC(O)(P(=O)(O)O)P(=O)(O)O` [alendronate], in series [1], the “potency relative to etidronate” value is “approximately 700 fold”.
